Assay results as given in PubChem BioAssay (NCI).
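Step 1: Grow cells in 96-well plates. Step 2: Expose to compound for 48 hours at 5 concentrations. Step 3: Interpolate endpoints linearly; if unreached, use highest concentration. GI50 marks 50% less growth. The concentration for full growth arrest is given as TGI.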

tested on: SK-MEL-28 melanoma; assay: DTP human tumour cell line panel, 48 h

| Structure (SMILES) | TGI [µM] | GI50 [µM] |
| --- | --- | --- |
| CC1=CC2C(O1)C1C(=O)C=CC(=O)C1=CC2[N+](=O)[O-] (configuration not stated) | 68.4 | – |
| C=C(Br)C(C)(Cl)CCC(Br)C(C)(C)Cl (configuration not stated) | > 100 | – |
| CN1CCN([C@H]2C[C@H]3[C@@H]4CC=C5C[C@@H](O)CC[C@]5(C)[C@H]4CC[C@]3(C)C2=O)CC1 | > 100 | – |
| Cc1cn(C2CC(n3cc(Cn4cc(I)c(=O)[nH]c4=O)nn3)C(CO)O2)c(=O)[nH]c1=O (configuration not stated) | > 100 | – |
| CNC(=O)OCC1=C(COC(=O)NC)C(C)N(c2ccc(OC)cc2)C1 (configuration not stated) | > 100 | – |
| CCC12C=CCN3CCC4(C(=C(C(=O)OC)[C@@H]1O)Nc1ccccc14)C32 (some centres not stated) | 4.13 | – |
| O=C1CCC(=O)N1n1c(Cc2ccccc2)n[nH]c1=O | > 100 | – |
| O=C(O)CN(CC(=O)O)C1CCCCC1N(CC(=O)O)CC(=O)NCCN=C=S (configuration not stated) | > 100 | – |
| N=c1n(C(=O)N2CCCC2)c2cc(Cl)ccc2n1C1=NCCN1 | > 100 | – |
| Cc1cn(C2CC(N(O)C(N)=O)C(CO)O2)c(=O)[nH]c1=O (configuration not stated) | > 100 | – |
| COc1nc(N)c(C(=O)CCl)c(=O)n1C | 26.4 | – |
| O=C1CCC23CC(C=CC=C12)n1c(=O)n(-c2ccccc2)c(=O)n13 (configuration not stated) | > 100 | – |
| [N-]=[N+]=Nc1cc(=O)oc2ccccc12 | > 100 | – |
| CC(=O)NC1=C(NCCC(C)C)C(=O)c2ccccc2C1=O | > 50 | – |
| O=C(O)c1cccc2c1/C(=N/Nc1ccccc1)CC2 | > 100 | – |
| CC1=C(C)[C@@]2(C)O[C@@]2(C)O[C@@]2(C)O[C@@]12C | > 100 | – |
| O=C([O-])CC(=O)[O-].O=C([O-])CC(=O)[O-].[K+].[Pd+2] | > 100 | > 100 |

tested on: SNB-75 CNS; assay: DTP human tumour cell line panel, 48 h

| Structure (SMILES) | TGI [µM] | GI50 [µM] |
| --- | --- | --- |
| CC1C=C(CCCCCCCCCCCC[C@@H](O)[C@@H]2CC[C@@H]([C@@H]3CC[C@@H](C(O)CCCCCCCCCCCCC4=C[C@H](C)OC4=O)O3)O2)C(=O)O1 (some centres not stated) | > 100 | – |
| CCNC(=S)N/N=C/c1cc([N+](=O)[O-])ccc1O | > 100 | – |
| COc1cc([C@@H]2OCC3C(c4ccc5c(c4)OCO5)OCC32)cc(OC)c1OC (some centres not stated) | > 100 | – |
| Cc1cc(N(CCC#N)CCC#N)ccc1/C(N=Nc1ccc(Cl)cc1)=N\NC(=O)c1ccccc1 | > 100 | – |
| CC[C@@]1(O)C(=O)OCc2c1cc1n(c2=O)Cc2c-1nc1ccccc1c2/C=N\NC(=O)CN | 6.21 | – |
| N#CN=C(N(Cc1ccccc1)Cc1ccccc1)N(Cc1ccccc1)Cc1ccccc1 | > 100 | – |
| CNC(=O)C(C)C1CCC2(C)C=CC(=O)C(C)=C2C1O (configuration not stated) | > 100 | – |
| CCOc1cc2c(cc1O)/C(=N\OC)C[C@@H]1[C@@H]2CC[C@]2(C)[C@@H](O)CC[C@@H]12 | 0.21 | – |
| CC1(C)N=C(/C(Cl)=[N+](/[O-])C(=O)c2ccc(F)cc2)C(C)(C)N1O | 32.7 | – |
| COC(=O)[C@H](Cc1c[nH]c2ccccc12)NP(=O)(O)OCC1C=CC(n2cc(C)c(=O)[nH]c2=O)O1 (some centres not stated) | > 100 | – |
| C[n+]1c2ccccc2c(/C=N\NS(=O)(=O)c2ccc(O)c(C(=O)O)c2)c2ccccc21 | > 100 | – |
| O=C(Nc1ccc(C2=NCCN2)cc1)c1cncc(C(=O)Nc2ccc(C3=NCCN3)cc2)c1 | > 31.6 | – |
| Clc1ccc(/C=C/c2nc3ccccc3s2)cc1Cl | 40.9 | – |
| CC(=O)Nc1ccc(-c2nnc(SCC(=O)Nc3ccc([N+](=O)[O-])cc3)o2)cc1 | 27.6 | – |
| N.N.N.N.O=[N+]([O-])[O-].[Co+3].[N-]=[N+]=[N-].[N-]=[N+]=[N-] | > 100 | – |
| COC(=O)C1CCC(=O)N1C(c1ccccc1)c1ccc(OC)c(OC)c1 (configuration not stated) | > 100 | – |
| Cc1cccc(/C=N/NC(=S)Nc2ccccc2)n1 | 32.3 | – |

| Structure (SMILES) | TGI [µM] | GI50 [µM] |
| --- | --- | --- |
| Cc1cc(=O)[nH]c(NN2C(Cl)C(=O)C2c2ccccc2O)n1 (configuration not stated) | > 76.2 | – |
| COc1ccc(/C=C2\CCC(C)C3=C2NC(=S)NC3c2ccc(OC)c(OC)c2)cc1OC (configuration not stated) | > 100 | – |
| CC[C@@]1(C[C@H]2C[C@@]3(C(=O)OC)c4[nH]c5ccccc5c4CCN3C2=O)COC2(CCCCC2)O1 | > 100 | – |
| CC(C)CCCCCCCCCCCCC(=O)NCC(=O)NC1C(C)OC(Nc2ncnc3c2ncn3C)C(O)C1O (configuration not stated) | 27.9 | – |
| C=C(C1=CC(=O)C(C)(C)O1)[C@@H]1CC=C([C@@H]2CC[C@H]3[C@@]2(C)CC[C@H]2C(C)(C)C(=O)[C@H](O)C[C@]32C)[C@H](O)O1 | 25.1 | – |
| CC1=CC2C(O1)C1C(=O)C=CC(=O)C1=CC2[N+](=O)[O-] (configuration not stated) | > 68.1 | – |
| CN1CCN([C@H]2C[C@H]3[C@@H]4CC=C5C[C@@H](O)CC[C@]5(C)[C@H]4CC[C@]3(C)C2=O)CC1 | > 100 | – |
| Cc1cn(C2CC(n3cc(Cn4cc(I)c(=O)[nH]c4=O)nn3)C(CO)O2)c(=O)[nH]c1=O (configuration not stated) | > 100 | – |
| CNC(=O)OCC1=C(COC(=O)NC)C(C)N(c2ccc(OC)cc2)C1 (configuration not stated) | > 100 | – |
| CCC12C=CCN3CCC4(C(=C(C(=O)OC)[C@@H]1O)Nc1ccccc14)C32 (some centres not stated) | 5.8 | – |
| O=C1CCC(=O)N1n1c(Cc2ccccc2)n[nH]c1=O | > 100 | – |
| COc1nc(N)c(C(=O)CCl)c(=O)n1C | 30.3 | – |
| O=C1CCC23CC(C=CC=C12)n1c(=O)n(-c2ccccc2)c(=O)n13 (configuration not stated) | > 100 | – |
| [N-]=[N+]=Nc1cc(=O)oc2ccccc12 | > 100 | – |
| CC(=O)NC1=C(NCCC(C)C)C(=O)c2ccccc2C1=O | > 50 | – |
| CC1=C(C)[C@@]2(C)O[C@@]2(C)O[C@@]2(C)O[C@@]12C | > 100 | – |
| O=C([O-])CC(=O)[O-].O=C([O-])CC(=O)[O-].[K+].[Pd+2] | > 100 | > 100 |

tested on: UACC-62 melanoma; assay: DTP human tumour cell line panel, 48 h

| Structure (SMILES) | TGI [µM] | GI50 [µM] |
| --- | --- | --- |
| CC1C=C(CCCCCCCCCCCC[C@@H](O)[C@@H]2CC[C@@H]([C@@H]3CC[C@@H](C(O)CCCCCCCCCCCCC4=C[C@H](C)OC4=O)O3)O2)C(=O)O1 (some centres not stated) | > 100 | – |
| CCNC(=S)N/N=C/c1cc([N+](=O)[O-])ccc1O | 93.9 | – |
| Cc1cc(N(CCC#N)CCC#N)ccc1/C(N=Nc1ccc(Cl)cc1)=N\NC(=O)c1ccccc1 | > 100 | – |
| CC[C@@]1(O)C(=O)OCc2c1cc1n(c2=O)Cc2c-1nc1ccccc1c2/C=N\NC(=O)CN | 0.842 | – |
| CCc1ccc(CCN2CCCCC2)nc1 | > 100 | – |
| N#CN=C(N(Cc1ccccc1)Cc1ccccc1)N(Cc1ccccc1)Cc1ccccc1 | > 100 | – |
| CNC(=O)C(C)C1CCC2(C)C=CC(=O)C(C)=C2C1O (configuration not stated) | > 100 | – |
| CCOc1cc2c(cc1O)/C(=N\OC)C[C@@H]1[C@@H]2CC[C@]2(C)[C@@H](O)CC[C@@H]12 | 24 | – |
| CC1(C)N=C(/C(Cl)=[N+](/[O-])C(=O)c2ccc(F)cc2)C(C)(C)N1O | 33 | – |
| COC(=O)[C@H](Cc1c[nH]c2ccccc12)NP(=O)(O)OCC1C=CC(n2cc(C)c(=O)[nH]c2=O)O1 (some centres not stated) | > 100 | – |
| CCCNC1=C2CC(C)CC(OC)[C@@H](O)[C@H](C)/C=C(\C)C(OC(N)=O)C(OC)/C=C\C=C(/C)C(=O)NC(=CC1=O)C2=O (some centres not stated) | 41.9 | 0.253 |
| C[n+]1c2ccccc2c(/C=N\NS(=O)(=O)c2ccc(O)c(C(=O)O)c2)c2ccccc21 | > 100 | – |
| O=C(Nc1ccc(C2=NCCN2)cc1)c1cncc(C(=O)Nc2ccc(C3=NCCN3)cc2)c1 | > 100 | – |
| Clc1ccc(/C=C/c2nc3ccccc3s2)cc1Cl | > 100 | – |
| C(/c1ccco1)=c1/nc(-c2ccccc2)n2c1nc1ccccc12 | > 100 | – |
| CC(=O)Nc1ccc(-c2nnc(SCC(=O)Nc3ccc([N+](=O)[O-])cc3)o2)cc1 | 21.5 | – |
| N.N.N.N.O=[N+]([O-])[O-].[Co+3].[N-]=[N+]=[N-].[N-]=[N+]=[N-] | > 100 | – |
| COC(=O)C1CCC(=O)N1C(c1ccccc1)c1ccc(OC)c(OC)c1 (configuration not stated) | > 100 | – |
| Cc1cccc(/C=N/NC(=S)Nc2ccccc2)n1 | 12.5 | – |
| Cc1cc(=O)[nH]c(NN2C(Cl)C(=O)C2c2ccccc2O)n1 (configuration not stated) | > 46.7 | – |
| COc1ccc(/C=C2\CCC(C)C3=C2NC(=S)NC3c2ccc(OC)c(OC)c2)cc1OC (configuration not stated) | > 31.6 | – |

| Structure (SMILES) | TGI [µM] | GI50 [µM] |
| --- | --- | --- |
| CC[C@@]1(C[C@H]2C[C@@]3(C(=O)OC)c4[nH]c5ccccc5c4CCN3C2=O)COC2(CCCCC2)O1 | > 100 | – |
| COc1ccc2c(=O)c(O)c(-c3ccc(OC)c(OC)c3)oc2c1 | > 100 | – |
| CC(C)CCCCCCCCCCCCC(=O)NCC(=O)NC1C(C)OC(Nc2ncnc3c2ncn3C)C(O)C1O (configuration not stated) | > 100 | – |
| C=C(C1=CC(=O)C(C)(C)O1)[C@@H]1CC=C([C@@H]2CC[C@H]3[C@@]2(C)CC[C@H]2C(C)(C)C(=O)[C@H](O)C[C@]32C)[C@H](O)O1 | 14.9 | – |
| CC1=CC2C(O1)C1C(=O)C=CC(=O)C1=CC2[N+](=O)[O-] (configuration not stated) | 36.2 | – |
| C=C(Br)C(C)(Cl)CCC(Br)C(C)(C)Cl (configuration not stated) | > 100 | – |
| CN1CCN([C@H]2C[C@H]3[C@@H]4CC=C5C[C@@H](O)CC[C@]5(C)[C@H]4CC[C@]3(C)C2=O)CC1 | > 100 | – |
| CCOC(=O)Nn1c(C)nnc1-c1ccccc1 | > 100 | – |
| Cc1cn(C2CC(n3cc(Cn4cc(I)c(=O)[nH]c4=O)nn3)C(CO)O2)c(=O)[nH]c1=O (configuration not stated) | > 100 | – |
| CNC(=O)OCC1=C(COC(=O)NC)C(C)N(c2ccc(OC)cc2)C1 (configuration not stated) | 57.3 | – |
| CCC12C=CCN3CCC4(C(=C(C(=O)OC)[C@@H]1O)Nc1ccccc14)C32 (some centres not stated) | 4.76 | – |
| O=C1CCC(=O)N1n1c(Cc2ccccc2)n[nH]c1=O | > 100 | – |
| O=C(O)CN(CC(=O)O)C1CCCCC1N(CC(=O)O)CC(=O)NCCN=C=S (configuration not stated) | > 100 | – |
| N=c1n(C(=O)N2CCCC2)c2cc(Cl)ccc2n1C1=NCCN1 | > 100 | – |
| Cc1cn(C2CC(N(O)C(N)=O)C(CO)O2)c(=O)[nH]c1=O (configuration not stated) | > 100 | – |
| O=C1CCC23CC(C=CC=C12)n1c(=O)n(-c2ccccc2)c(=O)n13 (configuration not stated) | > 100 | – |
| [N-]=[N+]=Nc1cc(=O)oc2ccccc12 | > 100 | – |
| CC(=O)NC1=C(NCCC(C)C)C(=O)c2ccccc2C1=O | > 50 | – |
| O=C(Cc1cccs1)N[C@@H]1C(=O)N2C(C(=O)OC(c3ccccc3)c3ccccc3)=C(CO)CS[C@H]12 | > 100 | – |
| CC1=C(C)[C@@]2(C)O[C@@]2(C)O[C@@]2(C)O[C@@]12C | > 100 | – |
| O=C([O-])CC(=O)[O-].O=C([O-])CC(=O)[O-].[K+].[Pd+2] | > 100 | > 100 |
